According to the supplement of paper PMC10307832:

Tests used:
Assay in all cases: relative viability (nuclei count vs DMSO), 5 days (fraction); higher = more cells survive
Kobe2602 + Bortezomib = compound: C1=CC(=CC=C1NC(=S)NNC2=C(C=C(C=C2[N+](=O)[O-])C(F)(F)F)[N+](=O)[O-])F [Kobe2602] + CC(C)C[C@H](NC(=O)[C@H](Cc1ccccc1)NC(=O)c1cnccn1)B(O)O [Bortezomib] (partner 0.002 µM)
How it was run: (§1)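 Nuclei were stained with Hoechst during a one-step fixation (final 0.05% Triton X-100, 1% formaldehyde, 1 ug/ml Hoechst) carried out 5 days after dosing, then counted on 4× images. The cells, lung cancer lines in 1536-well plates, had been dosed by pin tool the day after seeding with one drug alone or a fixed anchor-drug dose plus five library-drug doses (not always all listed) in √10 steps. Relative viability is the nuclei count in treated wells divided by that in vehicle wells, and each value is the median of duplicate plates.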

Kobe2602 + Luminespib = compound: C1=CC(=CC=C1NC(=S)NNC2=C(C=C(C=C2[N+](=O)[O-])C(F)(F)F)[N+](=O)[O-])F [Kobe2602] + CCNC(=O)c1noc(-c2cc(C(C)C)c(O)cc2O)c1-c1ccc(CN2CCOCC2)cc1 [Luminespib] (partner 0.01 µM)
How it was run: as §1

Kobe2602 + Pictilisib = compound: C1=CC(=CC=C1NC(=S)NNC2=C(C=C(C=C2[N+](=O)[O-])C(F)(F)F)[N+](=O)[O-])F [Kobe2602] + CS(=O)(=O)N1CCN(Cc2cc3nc(-c4cccc5[nH]ncc45)nc(N4CCOCC4)c3s2)CC1 [Pictilisib] (partner 1 µM)
How it was run: as §1

Zosuquidar + Trametinib = compound: O[C@@H](COc1cccc2ncccc12)CN1CCN([C@@H]2c3ccccc3[C@@H]3[C@H](c4ccccc42)C3(F)F)CC1 [Zosuquidar] + CC(=O)Nc1cccc(-n2c(=O)n(C3CC3)c(=O)c3c(Nc4ccc(I)cc4F)n(C)c(=O)c(C)c32)c1 [Trametinib] (partner 0.02 µM)
How it was run: as §1

Cell Line	relative viability (Kobe2602 + Bortezomib; first compound 0.2 µM)	relative viability (Kobe2602 + Bortezomib; first compound 0.6325 µM)	relative viability (Kobe2602 + Bortezomib; first compound 2 µM)	relative viability (Kobe2602 + Bortezomib; first compound 6.325 µM)	relative viability (Kobe2602 + Bortezomib; first compound 20 µM)	relative viability (Kobe2602 + Luminespib; first compound 0.2 µM)	relative viability (Kobe2602 + Luminespib; first compound 0.6325 µM)	relative viability (Kobe2602 + Luminespib; first compound 2 µM)	relative viability (Kobe2602 + Luminespib; first compound 6.325 µM)	relative viability (Kobe2602 + Luminespib; first compound 20 µM)	relative viability (Kobe2602 + Pictilisib; first compound 0.2 µM)	relative viability (Kobe2602 + Pictilisib; first compound 0.6325 µM)	relative viability (Kobe2602 + Pictilisib; first compound 2 µM)	relative viability (Kobe2602 + Pictilisib; first compound 6.325 µM)	relative viability (Kobe2602 + Pictilisib; first compound 20 µM)	relative viability (Zosuquidar + Trametinib; first compound 0.01 µM)	relative viability (Zosuquidar + Trametinib; first compound 0.03162 µM)	relative viability (Zosuquidar + Trametinib; first compound 0.1 µM)	relative viability (Zosuquidar + Trametinib; first compound 0.3162 µM)	relative viability (Zosuquidar + Trametinib; first compound 1 µM)
NCI-H647	0.911	1.22	0.889	0.882	0.938	0.259	0.188	0.152	0.112	0.225	0.432	0.483	0.455	0.425	0.567	0.444	0.457	0.419	0.549	0.484
LCLC-103H	1.15	1.11	1.04	1.13	1.01	0.908	1.03	0.935	0.913	0.765	0.596	0.696	0.62	0.618	0.638	0.679	0.654	0.679	0.676	0.622
HCC-15	0.959	1.1	0.964	0.994	1.03	0.411	0.272	0.301	0.255	0.384	0.816	0.848	0.738	0.78	0.707	0.393	0.374	0.345	0.397	0.38
H3255	0.691	0.782	0.743	0.818	0.766	0.769	0.981	0.902	0.937	0.878	0.533	0.451	0.509	0.486	0.509	0.58	0.581	0.525	0.638	0.632
NCI-H1915	1.01	0.998	0.958	0.99	0.931	0.778	0.875	0.783	0.852	0.693	0.959	0.993	0.994	0.989	1.02	0.296	0.284	0.297	0.321	0.301
NCI-H1650	0.232	0.192	0.207	0.192	0.207	0.188	0.185	0.177	0.211	0.178	0.554	0.806	0.635	0.658	0.597	0.488	0.577	0.702	0.661	0.601
NCI-H661	0.936	0.83	0.78	0.796	0.755	0.945	0.904	0.948	0.946	0.9	0.461	0.368	0.419	0.353	0.52	0.614	0.549	0.531	0.599	0.546
NCI-H2126	1.14	1.09	1.11	1.19	1.11	0.947	0.976	0.895	0.884	0.825	0.508	0.508	0.485	0.475	0.492	0.505	0.577	0.536	0.573	0.599
PC-14	0.814	0.848	0.818	0.837	0.859	0.16	0.161	0.307	0.151	0.149	0.63	0.674	0.592	0.637	0.745	0.826	0.753	0.862	0.83	0.706
EMC-BAC-2	1.08	1.17	1.06	1.12	1.12	1.16	1.16	1.13	1.31	1.14	0.503	0.6	0.548	0.569	0.558	0.92	0.988	0.842	1.02	0.883
NCI-H1437	0.595	0.48	0.562	0.392	0.451	1.12	1.11	1.1	1.14	0.984	0.412	0.501	0.471	0.424	0.363	0.508	0.587	0.507	0.762	0.533
NCI-H2405	1.05	0.999	0.936	0.968	0.999	0.674	0.694	0.73	0.771	0.719	0.459	0.41	0.413	0.425	0.536	0.64	0.621	0.617	0.754	0.617
NCI-H1666	0.919	0.728		0.737	0.867	0.975	1.08	1	1.05	1.08	0.345	0.5		0.276	0.471	0.833	1.03	0.859	0.954	0.811
NCI-H1993	0.978	1.09	0.897	0.985	1.02	0.673	0.794	0.605	0.658	0.769	0.649	0.807	0.861	0.893	0.785	0.483	0.5		0.591	0.508
COR-L23	0.88	1.04	0.914	1.07	0.92	0.685	0.64	0.537	0.648	0.684	0.766	0.695	0.811	0.837	0.832	0.573	0.639	0.507	0.811	0.505
